From patent US5932227A, “Percutaneously administrable base composition and drug composition prepared therefrom” (Hisamitsu Pharmaceutical Co., Inc., priority 1992, dated 1999)

Test: concentration in blood of tulobuterol upon administering to a rat, compared with oral administration
Assay type: in vivo
Conditions: oral 10 mg/kg

AUC (blood): 91000 ng·h/mL
bioavailability (blood): 5.37%
concentration in blood of tulobuterol (0.25 hr): 227.0
concentration in blood of tulobuterol (0.5 hr): 37.7
concentration in blood of tulobuterol (1 hr): 17.1
concentration in blood of tulobuterol (2 hr): 4.3
concentration in blood of tulobuterol (4 hr): 0.8
concentration in blood of tulobuterol (6 hr): 0 ng/mL
concentration in blood of tulobuterol (8 hr): 0 ng/mL
concentration in blood of tulobuterol (12 hr): 0 ng/mL
concentration in blood of tulobuterol (24 hr): 0 ng/mL
Compound: CC(C)(C)NCC(O)c1ccccc1Cl (centres unmarked) [tulobuterol]
